These results are taken from US8309552B2, “Immunomodulating heterocyclic compounds” (Medigene AG, priority 2003, dated 2012).

This test addresses T1, CD80-CD28 interaction (Homo sapiens, UniProt P33681).
T1 sequence (P33681 35-242 limits assumed): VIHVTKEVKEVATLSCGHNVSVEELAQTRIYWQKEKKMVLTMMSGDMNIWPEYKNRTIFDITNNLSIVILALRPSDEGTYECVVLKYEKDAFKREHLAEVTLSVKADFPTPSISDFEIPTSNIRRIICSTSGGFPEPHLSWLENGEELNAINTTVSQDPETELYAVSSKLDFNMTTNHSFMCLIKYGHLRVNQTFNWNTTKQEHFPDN
The test is described as follows: Homogenous Time Resolved Fluorescence (HTRF) assay, cell free. The test is classed as binding. The note with it: cell-free HTRF, compound concentration series 100 μM-1.7 nM, 4 hours at room temperature; read-out: Activity (EC50 in the HTRF assay). As for the experimental part: Homogenous Time Resolved Fluorescence Assay
The examples described above were tested in a cell free Homogenous Time Resolved Fluorescence (HTRF) assay to determine their activity as inhibitors of the CD80-CD28 interaction.
In the assay, europium and allophycocyanin (APC) are associated with CD28 and CD80 indirectly (through antibody linkers) to form a complex, which brings the europium and APC into close proximity to generate a signal. The complex comprises the following six proteins: fluorescent label 1, linker antibody 1, CD28 fusion protein, CD80 fusion protein, linker antibody 2, and fluorescent label 2. The table below describes these reagents in greater detail.
On formation of the complex, europium and APC are brought into proximity and a signal is generated.
Non-specific interaction was measured by substituting a mouse Fab fragment (C215) for the CD80 mouse Fab fragment fusion protein (1.9 μg/ml). The assay was carried out in black 384 well plates in a final volume of 30 μl. Assay buffer: 50 mM Tris-HCl, 150 mM NaCl pH7.8, containing 0.1% BSA (w/v) added just prior to use.
Compounds were added to the above reagents in a concentration series ranging between 100 μM-1.7 nM. The reaction was incubated for 4 hours at room temperature. Dual measurements were made using a Wallac Victor 1420 Multilabel Counter. First measurement: excitation 340 nm, emission 665 nm, delay 50 μs, window time 200 μs. second measurement: excitation 340 nm, emission 615 nm, delay 50 μs, window time 200 μs. Counts were automatically corrected for fluorescence crossover, quenching and background. The EC50 activities of compounds tested are recorded as: EC50:*=>10 μM,**=1-10 μM,***=<1 μM.
Background: Time-resolved FRET reads energy transfer from a long-lived donor to a nearby acceptor.
As usually defined, the EC50 is the concentration giving half of the maximal effect. As to `C=CCNC(=O)Nc1ccc(-n2[nH]c3c(nnc4ccccc43)c2=O)cc1` [Example 131], the EC50 is less than 1000 nM.
With `O=C(NCCN1CCOCC1)Nc1ccc(-n2[nH]c3c(nnc4ccccc43)c2=O)cc1` [Example 132], the EC50 was less than 1000 nM.
Consider `COCCCNC(=O)Nc1ccc(-n2[nH]c3c(nnc4ccccc43)c2=O)cc1` [Example 133], for which the EC50 is 1000 to 10000 nM.
With `O=C(NCCCNC1CCCCC1)Nc1ccc(-n2[nH]c3c(nnc4ccccc43)c2=O)cc1` [Example 134] the figure was less than 1000 nM; with `CN1C(C)(C)CC(NC(=O)Nc2ccc(-n3[nH]c4c(nnc5ccccc54)c3=O)cc2)CC1(C)C` [Example 135], 1000 to 10000 nM.
Take `CC(CCCC(C)(C)O)NC(=O)Nc1ccc(-n2[nH]c3c(nnc4ccccc43)c2=O)cc1` (centres unmarked) [Example 137]: the EC50 lay within 1000 to 10000 nM.
Next, `CC(C)CNC(=O)Nc1ccc(-n2[nH]c3c(nnc4ccccc43)c2=O)cc1` [Example 138]: 1000 to 10000 nM; `COCCNC(=O)Nc1ccc(-n2[nH]c3c(nnc4ccccc43)c2=O)cc1` [Example 140]: 1000 to 10000 nM; `CC(C)NCCNC(=O)Nc1ccc(-n2[nH]c3c(nnc4ccccc43)c2=O)cc1` [Example 141]: less than 1000 nM.
For `CNCCNC(=O)Nc1ccc(-n2[nH]c3c(nnc4ccccc43)c2=O)cc1` [Example 142], the EC50 is less than 1000 nM.
On to `CCNCCNC(=O)Nc1ccc(-n2[nH]c3c(nnc4ccccc43)c2=O)cc1` [Example 143], for which the EC50 was less than 1000 nM.
`CCCNCCNC(=O)Nc1ccc(-n2[nH]c3c(nnc4ccccc43)c2=O)cc1` [Example 144]: the EC50 was less than 1000 nM.
For `O=C(NCCOCCO)Nc1ccc(-n2[nH]c3c(nnc4ccccc43)c2=O)cc1` [Example 145], the EC50 was less than 1000 nM.
Next, `O=C(NCCO)Nc1ccc(-n2[nH]c3c(nnc4ccccc43)c2=O)cc1` [Example 146]: less than 1000 nM; `O=C(NCCc1ccccc1)Nc1ccc(-n2[nH]c3c(nnc4ccccc43)c2=O)cc1` [Example 147]: 1000 to 10000 nM.
With `CC(C)NCCCNC(=O)Nc1ccc(-n2[nH]c3c(nnc4ccccc43)c2=O)cc1` [Example 148], the EC50 is less than 1000 nM.
Consider `CC(C)OCCCNC(=O)Nc1ccc(-n2[nH]c3c(nnc4ccccc43)c2=O)cc1` [Example 149], for which the EC50 is 1000 to 10000 nM.
For `O=C(NCCCO)Nc1ccc(-n2[nH]c3c(nnc4ccccc43)c2=O)cc1` [Example 150], the EC50 was less than 1000 nM.
As for `O=C(NCCCCCO)Nc1ccc(-n2[nH]c3c(nnc4ccccc43)c2=O)cc1` [Example 151], the EC50 fell in the range of 1000 to 10000 nM.
With `O=C(NCCNc1cccc2ccccc12)Nc1ccc(-n2[nH]c3c(nnc4ccccc43)c2=O)cc1` [Example 152] the figure was greater than 10000 nM; with `O=C(Nc1ccc(-n2[nH]c3c(nnc4ccccc43)c2=O)cc1)NC1CCOC1=O` (centres unmarked) [Example 153], 1000 to 10000 nM.
With `COC(=O)CNC(=O)Nc1ccc(-n2[nH]c3c(nnc4ccccc43)c2=O)cc1` [Example 154], the EC50 was in the range of 1000 to 10000 nM.
Next, `O=C(NCCc1ccc([N+](=O)[O-])cc1)Nc1ccc(-n2[nH]c3c(nnc4ccccc43)c2=O)cc1` [Example 155]: 1000 to 10000 nM; `CCOC(=O)CCNC(=O)Nc1ccc(-n2[nH]c3c(nnc4ccccc43)c2=O)cc1` [Example 156]: 1000 to 10000 nM; `NC(=O)CNC(=O)Nc1ccc(-n2[nH]c3c(nnc4ccccc43)c2=O)cc1` [Example 157]: 1000 to 10000 nM.
With `CCOC(=O)C(C)NC(=O)Nc1ccc(-n2[nH]c3c(nnc4ccccc43)c2=O)cc1` (centres unmarked) [Example 158] the figure was 1000 to 10000 nM; with `CCCCCCCCCCCCOCCCNC(=O)Nc1ccc(-n2[nH]c3c(nnc4ccccc43)c2=O)cc1` [Example 159], less than 1000 nM; with `CCCCOCCCNC(=O)Nc1ccc(-n2[nH]c3c(nnc4ccccc43)c2=O)cc1` [Example 160], greater than 10000 nM.
Next, `CSCCCNC(=O)Nc1ccc(-n2[nH]c3c(nnc4ccccc43)c2=O)cc1` [Example 161]: 1000 to 10000 nM.
On to `CC(C)(C)OC(=O)NCCCCCCNC(=O)Nc1ccc(-n2[nH]c3c(nnc4ccccc43)c2=O)cc1` [Example 163], for which the EC50 lay within 1000 to 10000 nM.
Next, `CCOC(=O)C1CCCC1NC(=O)Nc1ccc(-n2[nH]c3c(nnc4ccccc43)c2=O)cc1` (centres unmarked) [Example 164]: greater than 10000 nM.
With `C=C(C)CNC(=O)Nc1ccc(-n2[nH]c3c(nnc4ccccc43)c2=O)cc1` [Example 165] the figure was 1000 to 10000 nM; with `O=C(Nc1ccc(-n2[nH]c3c(nnc4ccccc43)c2=O)cc1)NC1CCOC1=O` (centres unmarked) [Example 166], 1000 to 10000 nM; with `CCC(C)NC(=O)Nc1ccc(-n2[nH]c3c(nnc4ccccc43)c2=O)cc1` (centres unmarked) [Example 167], 1000 to 10000 nM.
Next, `CCN(CC)CCCC(C)NC(=O)Nc1ccc(-n2[nH]c3c(nnc4ccccc43)c2=O)cc1` (centres unmarked) [Example 168]: less than 1000 nM.
In the case of `O=C(Nc1ccc(-n2[nH]c3c(nnc4ccccc43)c2=O)cc1)NC1CN2CCC1CC2` (centres unmarked) [Example 169], the EC50 is less than 1000 nM.
Next, `O=CCCNC(=O)Nc1ccc(-n2[nH]c3c(nnc4ccccc43)c2=O)cc1` [Example 170]: greater than 10000 nM; `CC(O)CCNC(=O)Nc1ccc(-n2[nH]c3c(nnc4ccccc43)c2=O)cc1` (centres unmarked) [Example 171]: less than 1000 nM.
Consider `COc1ccc2[nH]cc(CCNC(=O)Nc3ccc(-n4[nH]c5c(nnc6ccccc65)c4=O)cc3)c2c1` [Example 172], for which the EC50 is 1000 to 10000 nM.
Turning to `CC(C)C(C)NC(=O)Nc1ccc(-n2[nH]c3c(nnc4ccccc43)c2=O)cc1` (centres unmarked) [Example 173], the EC50 fell in the range of 1000 to 10000 nM.
With `COCC(C)NC(=O)Nc1ccc(-n2[nH]c3c(nnc4ccccc43)c2=O)cc1` (centres unmarked) [Example 174] the figure was 1000 to 10000 nM.
As for `CCOC(=O)CC(C)NC(=O)Nc1ccc(-n2[nH]c3c(nnc4ccccc43)c2=O)cc1` (centres unmarked) [Example 175], the EC50 fell in the range of 1000 to 10000 nM.
As to `CCN(CC)CCCNC(=O)c1ccc(-n2[nH]c3c(nnc4ccccc43)c2=O)cc1` [Example 176], the EC50 was less than 1000 nM.
Next, `CCCCNC(=O)Nc1ccc(-n2[nH]c3c(nnc4ccccc43)c2=O)cc1` [Example 177]: 1000 to 10000 nM.
Consider `CSCCNC(=O)Nc1ccc(-n2[nH]c3c(nnc4ccccc43)c2=O)cc1` [Example 178], for which the EC50 is 1000 to 10000 nM.
In the case of `O=C(NCCCN1CCOCC1)Nc1ccc(-n2[nH]c3c(nnc4ccccc43)c2=O)cc1` [Example 179], the EC50 is less than 1000 nM.
Consider `O=C(NCCSCc1c(F)cccc1Cl)Nc1ccc(-n2[nH]c3c(nnc4ccccc43)c2=O)cc1` [Example 180], for which the EC50 was greater than 10000 nM.
Next, `CCCCCC(C)NC(=O)Nc1ccc(-n2[nH]c3c(nnc4ccccc43)c2=O)cc1` (centres unmarked) [Example 181]: greater than 10000 nM.
As to `CN1CCC(NC(=O)Nc2ccc(-n3[nH]c4c(nnc5ccccc54)c3=O)cc2)CC1` [Example 183], the EC50 was less than 1000 nM.
Turning to `O=C(NCCc1ccncc1)Nc1ccc(-n2[nH]c3c(nnc4ccccc43)c2=O)cc1` [Example 184], the EC50 is 1000 to 10000 nM.
With `CN(C)CC(C)(C)CNC(=O)Nc1ccc(-n2[nH]c3c(nnc4ccccc43)c2=O)cc1` [Example 185] the figure was less than 1000 nM.
With `CC1CCCCN1CCCNC(=O)Nc1ccc(-n2[nH]c3c(nnc4ccccc43)c2=O)cc1` (centres unmarked) [Example 186] the figure was less than 1000 nM; with `CCC(CC)NC(=O)Nc1ccc(-n2[nH]c3c(nnc4ccccc43)c2=O)cc1` [Example 187], 1000 to 10000 nM; with `O=C(NCCCCc1ccccc1)Nc1ccc(-n2[nH]c3c(nnc4ccccc43)c2=O)cc1` [Example 188], greater than 10000 nM.
With `CCOC(=O)CCC(NC(=O)Nc1ccc(-n2[nH]c3c(nnc4ccccc43)c2=O)cc1)C(=O)OCC` (centres unmarked) [Example 189] the figure was 1000 to 10000 nM; with `O=C(Nc1ccc(-n2[nH]c3c(nnc4ccccc43)c2=O)cc1)NC1CCC(O)CC1` (centres unmarked) [Example 190], 1000 to 10000 nM; with `CCOC(=O)CCCNC(=O)Nc1ccc(-n2[nH]c3c(nnc4ccccc43)c2=O)cc1` [Example 192], greater than 10000 nM.
Take `O=C(NCCNCc1ccccc1)Nc1ccc(-n2[nH]c3c(nnc4ccccc43)c2=O)cc1` [Example 193]: the EC50 was less than 1000 nM.
Take `CC(NC(=O)Nc1ccc(-n2[nH]c3c(nnc4ccccc43)c2=O)cc1)C1CCCCC1` (centres unmarked) [Example 194]: the EC50 is greater than 10000 nM.
Next, `O=C(Nc1ccc(-n2[nH]c3c(nnc4ccccc43)c2=O)cc1)NC1CCOC1=O` (centres unmarked) [Example 195]: 1000 to 10000 nM; `O=C(NCCc1ccccn1)Nc1ccc(-n2[nH]c3c(nnc4ccccc43)c2=O)cc1` [Example 196]: 1000 to 10000 nM.
Next, `O=C(Nc1ccc(-n2[nH]c3c(nnc4ccccc43)c2=O)cc1)NC1CCCN(Cc2ccccc2)C1` (centres unmarked) [Example 197]: 1000 to 10000 nM.
